This note sets out measurements from patent publication US8178506B2, “Oligomeric compounds and compositions for use in modulation of small non-coding RNAs” (Regulus Therapeutics Inc., priority 2003, dated 2012).

Holding throughout (type): cell-based, human
Data set [1] has as its system PPARγ. In words: PPARγ mRNA expression in adipocytes (real-time PCR). In general terms: Real-time PCR tracks product formation cycle by cycle.
Data set [2] deals with aP2. In words: aP2 mRNA expression in adipocytes (real-time PCR). The following applies: for aP2 mRNA: differentiating adipocytes transfected with oligomeric compound, Table 75; for AP2 mRNA: differentiating adipocytes, control = treatment with ISIS 342673.
Data set [3] concerns adipocytes. In words: Triglyceride accumulation assay in adipocytes.
The subject of data set [4] is HSL. In words: HSL mRNA expression in adipocytes (real-time PCR).
Data set [5] concerns Glut4. In words: Glut4 mRNA expression in adipocytes (real-time PCR).
[6] abbreviates: differentiating adipocytes transfected with oligomeric compound, Table 75.
The mark [7] stands for this setting: Table 17, differentiating adipocytes, control = treatment with ISIS 342673.
Where [8] appears, read: Table 18, differentiating adipocytes, control = treatment with ISIS 342673.

In the oligonucleotide strings, read from the 5' end, every base follows the letter of its sugar. An asterisk marks phosphorothioate; unmarked linkages are phosphodiester. Other units and linkages are bracketed, terminal groups are in braces. A string of capitals states the bases alone. e = 2'-O-(2-methoxyethyl) (MOE); [5mC] = 5-methylcytosine

As to “346908 (GCUUUGACAAUACUAUUGCACUG; all 2'-MOE, all phosphorothioate, methylation of C and T or U not given here) [compound 346908]”, in data set [1] (setting [6]), the “PPAR gamma mRNA” value is given as 77 percentage of untreated control (UTC). Also, the “aP2 mRNA” value in data set [2] was 77 percentage of untreated control (UTC). Also, in data set [3] (setting [6]), the “TG (triglyceride accumulation)” value is recorded as 75 percentage of untreated control (UTC). In addition, the “HSL mRNA” value in data set [4] (setting [6]) is reported as 71 percentage of untreated control (UTC). Besides, in data set [5] (setting [6]), the “GLUT4 mRNA” value is listed as 65 percentage of untreated control (UTC).

Take “346909 (UCACCAAAACAUGGAAGCACUUA; all 2'-MOE, all phosphorothioate, methylation of C and T or U not given here) [compound 346909]”: the “PPAR gamma mRNA” value in data set [1] (setting [6]) is 77 percentage of untreated control (UTC). For the same substance, in data set [2], the “aP2 mRNA” value is on record as 68 percentage of untreated control (UTC). Besides, the “TG (triglyceride accumulation)” value in data set [3] (setting [6]) was 66 percentage of untreated control (UTC). For the same substance, the “HSL mRNA” value in data set [4] (setting [6]) is listed as 64 percentage of untreated control (UTC). In addition, the “GLUT4 mRNA” value in data set [5] (setting [6]) is listed as 64 percentage of untreated control (UTC).

As to “328095 (antisense eT*e[5mC]*eA*e[5mC]*eA*eG*eA*eG*eA*eA*eA*eA*e[5mC]*eA*eA*e[5mC]*eT*eG*eG*eT*eA) [compound 328095]”, the “PPAR gamma mRNA” value in data set [1] (setting [6]) is on record as 92 percentage of untreated control (UTC). Also, the “aP2 mRNA” value in data set [2] was 70 percentage of untreated control (UTC). Besides, the “TG (triglyceride accumulation)” value in data set [3] (setting [6]) is reported as 110 percentage of untreated control (UTC). Further, the “HSL mRNA” value in data set [4] (setting [6]) is on record as 83 percentage of untreated control (UTC). Besides, in data set [5] (setting [6]), the “GLUT4 mRNA” value is 98 percentage of untreated control (UTC).

For “328127 (antisense eA*eA*e[5mC]*eG*eA*eT*eA*eA*eA*eA*e[5mC]*eA*eT*eA*e[5mC]*eT*eT*eG*eT*e[5mC]*eA) [compound 328127]”, the “PPAR gamma mRNA” value is listed as 77.6 percentage of control in data set [1] (setting [7]) and 85 percentage of untreated control (UTC) in data set [1] (setting [6]). Besides, in data set [2] (Table 17), the “AP2 mRNA” value was 86.9 percentage of control. In data set [2], the “aP2 mRNA” value is reported as 95 percentage of untreated control (UTC). The “TG (triglyceride accumulation)” value is recorded as 74.5 percentage of control in data set [3] (setting [7]) and 81 percentage of untreated control (UTC) in data set [3] (setting [6]). The entries for the “HSL mRNA” value in data set [4] (setting [7]) and in data set [4] (setting [6]) were 89.7 percentage of control and 93 percentage of untreated control (UTC), respectively. Further, the “GLUT4 mRNA” value in data set [5] (setting [7]) was 80.8 percentage of control; in data set [5] (setting [6]), 75 percentage of untreated control (UTC).

“328094 (antisense eT*eT*eG*eT*eA*eA*eG*e[5mC]*eA*eG*eT*eT*eT*eT*eG*eT*eT*eG*eA*e[5mC]*eA) [compound 328094]”: the “PPAR gamma mRNA” value in data set [1] (setting [6]) was 94 percentage of untreated control (UTC). In addition, the “aP2 mRNA” value in data set [2] is 68 percentage of untreated control (UTC). Further, in data set [3] (setting [6]), the “TG (triglyceride accumulation)” value is recorded as 65 percentage of untreated control (UTC). In addition, the “HSL mRNA” value in data set [4] (setting [6]) is on record as 74 percentage of untreated control (UTC). Moreover, in data set [5] (setting [6]), the “GLUT4 mRNA” value is reported as 83 percentage of untreated control (UTC).

Turning to “346921 (AACAACCAGCUAAGACACUGCCA; all 2'-MOE, all phosphorothioate, methylation of C and T or U not given here) [compound 346921]”, the “PPAR gamma mRNA” value in data set [1] (setting [6]) is 62 percentage of untreated control (UTC). In addition, in data set [2], the “aP2 mRNA” value was 69 percentage of untreated control (UTC). Moreover, in data set [3] (setting [6]), the “TG (triglyceride accumulation)” value is 52 percentage of untreated control (UTC). Besides, the “HSL mRNA” value in data set [4] (setting [6]) was 49 percentage of untreated control (UTC). Further, in data set [5] (setting [6]), the “GLUT4 mRNA” value was 51 percentage of untreated control (UTC).

Regarding “328090 (antisense eA*eT*eT*eA*eA*eA*eA*eA*eG*eT*e[5mC]*e[5mC]*eT*e[5mC]*eT*eT*eG*e[5mC]*e[5mC]*e[5mC]*eA) [compound 328090]”, the “PPAR gamma mRNA” value in data set [1] (setting [6]) is on record as 95 percentage of untreated control (UTC). In addition, the “aP2 mRNA” value in data set [2] was 68 percentage of untreated control (UTC). Moreover, the “TG (triglyceride accumulation)” value in data set [3] (setting [6]) is reported as 128 percentage of untreated control (UTC). Further, the “HSL mRNA” value in data set [4] (setting [6]) was 81 percentage of untreated control (UTC). Besides, the “GLUT4 mRNA” value in data set [5] (setting [6]) is reported as 86 percentage of untreated control (UTC).

Consider “344341 (CACAUGGUUAGAUCAAGCACAA; anti-miR; all 2'-MOE, all phosphorothioate, methylation of C and T or U not given here) [compound 344341]”, for which the “PPAR gamma mRNA” value in data set [1] (setting [6]) is on record as 49 percentage of untreated control (UTC). The “aP2 mRNA” value in data set [2] is on record as 42 percentage of untreated control (UTC). In addition, the “TG (triglyceride accumulation)” value in data set [3] (setting [6]) is given as 50 percentage of untreated control (UTC). In addition, in data set [4] (setting [6]), the “HSL mRNA” value is 33 percentage of untreated control (UTC). Besides, the “GLUT4 mRNA” value in data set [5] (setting [6]) is given as 14 percentage of untreated control (UTC).

For “328134 (eA*eA*eT*eT*eG*eG*eA*e[5mC]*eA*eA*eA*eG*eT*eG*e[5mC]*e[5mC]*eT*eT*eT*e[5mC]*eA; anti-miR) [compound 328134]”, the “PPAR gamma mRNA” value in data set [1] (setting [7]) is recorded as 78.4 percentage of control; in data set [1] (setting [6]), 86 percentage of untreated control (UTC). The “AP2 mRNA” value in data set [2] (Table 17) was 80.1 percentage of control. In data set [2], the “aP2 mRNA” value is listed as 97 percentage of untreated control (UTC). Also, the “TG (triglyceride accumulation)” value in data set [3] (setting [7]) is given as 85.7 percentage of control; in data set [3] (setting [6]), 107 percentage of untreated control (UTC). The “HSL mRNA” value in data set [4] (setting [7]) is given as 74.7 percentage of control; in data set [4] (setting [6]), 109 percentage of untreated control (UTC). The “GLUT4 mRNA” value in data set [5] (setting [7]) is 88.3 percentage of control; in data set [5] (setting [6]) it was 109 percentage of untreated control (UTC).

“341791 (antisense GCUUCCAGUCGAGGAUGUUUACA; all 2'-MOE, all phosphorothioate, methylation of C and T or U not given here) [compound 341791]”: the “PPAR gamma mRNA” value in data set [1] (setting [6]) was 75 percentage of untreated control (UTC). In addition, the “aP2 mRNA” value in data set [2] is 80 percentage of untreated control (UTC). Also, the “TG (triglyceride accumulation)” value in data set [3] (setting [6]) is on record as 50 percentage of untreated control (UTC). Also, the “HSL mRNA” value in data set [4] (setting [6]) is reported as 72 percentage of untreated control (UTC). In addition, the “GLUT4 mRNA” value in data set [5] (setting [6]) is recorded as 47 percentage of untreated control (UTC).

Regarding “328120 (antisense eA*eA*eG*eA*eA*eG*eG*eA*eA*eG*eG*eA*eG*eG*eG*eA*eA*eA*eG*e[5mC]*eA) [compound 328120]”, the “PPAR gamma mRNA” value was 70.5 percentage of control in data set [1] (setting [7]) and 73 percentage of untreated control (UTC) in data set [1] (setting [6]). Moreover, the “AP2 mRNA” value in data set [2] (Table 17) is listed as 81.0 percentage of control. Further, the “aP2 mRNA” value in data set [2] is listed as 80 percentage of untreated control (UTC). The “TG (triglyceride accumulation)” value in data set [3] (setting [7]) was 82.7 percentage of control; in data set [3] (setting [6]), 80 percentage of untreated control (UTC). The “HSL mRNA” value in data set [4] (setting [7]) is reported as 77.7 percentage of control; in data set [4] (setting [6]), 67 percentage of untreated control (UTC). In addition, the entries for the “GLUT4 mRNA” value in data set [5] (setting [7]) and in data set [5] (setting [6]) were 94.8 percentage of control and 68 percentage of untreated control (UTC), respectively.

With “341796 (antisense UCAUACAGCUAGAUAACCAAAGA; all 2'-MOE, all phosphorothioate, methylation of C and T or U not given here) [compound 341796]”, the “PPAR gamma mRNA” value in data set [1] (setting [6]) is reported as 66 percentage of untreated control (UTC). Further, the “aP2 mRNA” value in data set [2] was 74 percentage of untreated control (UTC). The “TG (triglyceride accumulation)” value in data set [3] (setting [6]) is on record as 59 percentage of untreated control (UTC). In data set [4] (setting [6]), the “HSL mRNA” value was 67 percentage of untreated control (UTC). In addition, the “GLUT4 mRNA” value in data set [5] (setting [6]) was 58 percentage of untreated control (UTC).

With “328108 (antisense eA*eA*eA*e[5mC]*eT*eT*eG*eT*eT*eA*eA*eT*eT*eG*eA*e[5mC]*eT*eG*eT*e[5mC]*eA) [compound 328108]”, the “PPAR gamma mRNA” value in data set [1] (setting [8]) is 84.0 percentage of control; in data set [1] (setting [6]), 72 percentage of untreated control (UTC). The “AP2 mRNA” value in data set [2] (Table 18) was 83.7 percentage of control. Moreover, in data set [2], the “aP2 mRNA” value is on record as 87 percentage of untreated control (UTC). Moreover, the “TG (triglyceride accumulation)” value in data set [3] (setting [8]) is listed as 89.6 percentage of control; in data set [3] (setting [6]), 79 percentage of untreated control (UTC). Further, the “HSL mRNA” value is listed as 90.1 percentage of control in data set [4] (setting [8]) and 75 percentage of untreated control (UTC) in data set [4] (setting [6]). For the same substance, the results for the “GLUT4 mRNA” value in data set [5] (setting [8]) and in data set [5] (setting [6]) were 94.9 percentage of control and 65 percentage of untreated control (UTC), respectively.

For “346688 (UAGUUGGCAAGUCUAGAACCA; all 2'-MOE, all phosphorothioate, methylation of C and T or U not given here) [compound 346688]”, the “PPAR gamma mRNA” value in data set [1] (setting [6]) is on record as 55 percentage of untreated control (UTC). Moreover, in data set [2], the “aP2 mRNA” value is listed as 48 percentage of untreated control (UTC). Also, in data set [3] (setting [6]), the “TG (triglyceride accumulation)” value is recorded as 33 percentage of untreated control (UTC). Moreover, in data set [4] (setting [6]), the “HSL mRNA” value is listed as 39 percentage of untreated control (UTC). Moreover, in data set [5] (setting [6]), the “GLUT4 mRNA” value is 12 percentage of untreated control (UTC).

Turning to “346686 (CUUCAGUUAUCACAGUACUGUA; all 2'-MOE, all phosphorothioate, methylation of C and T or U not given here) [compound 346686]”, the “PPAR gamma mRNA” value in data set [1] (setting [6]) was 83 percentage of untreated control (UTC). Besides, the “aP2 mRNA” value in data set [2] is given as 83 percentage of untreated control (UTC). Moreover, in data set [3] (setting [6]), the “TG (triglyceride accumulation)” value is given as 73 percentage of untreated control (UTC). For the same substance, the “HSL mRNA” value in data set [4] (setting [6]) was 80 percentage of untreated control (UTC). For the same substance, the “GLUT4 mRNA” value in data set [5] (setting [6]) is 73 percentage of untreated control (UTC).
